{"source": "patent USH1453H", "about": "“N-acetyl-D-glucosamine deacetylase and a process for preparing the same” (priority 1993, dated 1995)", "key": {"[1]": {"target": "N-acetyl-D-glucosamine deacetylase (Vibrio cholerae, UniProt O32445)", "sequence (O32445 whole entry)": "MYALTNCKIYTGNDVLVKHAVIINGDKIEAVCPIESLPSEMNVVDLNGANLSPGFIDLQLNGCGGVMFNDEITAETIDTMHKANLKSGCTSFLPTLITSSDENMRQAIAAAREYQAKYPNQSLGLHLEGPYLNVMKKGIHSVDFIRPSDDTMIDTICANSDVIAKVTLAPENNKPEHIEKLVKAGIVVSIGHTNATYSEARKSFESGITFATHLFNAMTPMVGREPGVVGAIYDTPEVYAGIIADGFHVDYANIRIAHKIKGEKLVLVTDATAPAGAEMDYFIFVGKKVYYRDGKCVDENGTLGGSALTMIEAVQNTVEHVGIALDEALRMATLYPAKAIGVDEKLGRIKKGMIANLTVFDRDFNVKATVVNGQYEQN", "assay": "Substrate specificity of the enzyme", "assay_type": "biochemical, Vibrio cholerae non-01 (IFO 15429)", "settings": "substrate 0.2%, 37° C., pH 7.8, one hour"}, "Mucor sp.": {"test_system": "Mucor sp.", "settings": "method using a microorganism belonging to Mucor sp.; cited from earlier work"}, "Optimal pH of the enzyme": {"assay": "Optimal pH of the enzyme", "assay_type": "biochemical", "settings": "at 37° C.; indole-HCl method at pH 5.6-10.8", "protocol": "The optimal pH of the enzyme of the present invention varies widely depending on the origin of the microorganism used to produce the enzyme, but usually in the range of about 4.0-9.0. For example, the optimal pH of the enzyme derived from Vibrio sp. is in the range of 7.8-8.2 as determined colorimetrically according to indole-HCl method at pH 5.6-10.8. The buffer solution used at pH 5.6-6.0 is 100 mM CH3 COOH--CH3 COONa, at pH 6.0-9.0, 100 mM […] -Na2 HPO4 is used, and at pH 9.6-10.8, 200 mM Na2 HPO4 -NaOH is used."}, "Stable pH of the enzyme": {"assay": "Stable pH of the enzyme", "assay_type": "physicochemical", "settings": "not less than 50% of initial activity retained, determined at 37° C. after incubation at 45° C. for 30 minutes", "protocol": "The stable pH wherein not less than 50% of the initial activity of the enzyme is retained, as determined at 37° C. after incubation in a given buffer at 45° C. for 30 minutes, varies depending on the origin of the microorganism used to produce the enzyme, but usually ranges from about 3.0 to 9.0. For example, the stable pH of the enzyme derived from Vibrio sp. is in the range of about 6.0-9.0."}, "[2]": {"assay": "Determination of the enzymatic activity (D-glucosamine formed, indole-HCl colorimetry)", "assay_type": "biochemical", "settings": "37° C.; for specific activity: pH 7.8", "protocol": "An enzyme solution (0.1 ml) is added to 0.3 ml of 100 mM phosphate buffer (pH 7.8) containing 0.1 ml of 1% N-acetyl-D-glucosamine as a substrate, and the resultant mixture is incubated at 37° C. for 30 minutes. The amount of D-glucosamine formed is determined colorimetrically using indole-HCl according to the method of Z. Dische and E. Borenfreund [J. Biol. Chem., 184:517 (1950)]. One unit of the enzyme is defined as the amount of the enzyme which is capable of producing 1 μmol D-glucosaminefrom N-acetyl-D-glucosamine per minute at 37° C."}}}
{"compound": "CC(=O)N[C@H]1C(O)O[C@H](CO)[C@@H](O)[C@@H]1O", "note": "(stereo partly drawn) [GlcNAc, N-acetyl-D-glucosamine]", "values": [{"measurement": "Enzymatic Activity", "setting": "[1]", "value": 1.22, "unit": "Unit/mg"}, {"measurement": "formation of D-glucosamine", "setting": "[1]", "value": "can be observed"}]}
{"compound": "(GlcNAc)5", "values": [{"measurement": "deacetylated to the extent of", "setting": "Mucor sp.", "value": "12-14%"}]}
{"compound": "N-acetyl-D-glucosamine deacetylase", "values": [{"measurement": "Optimal pH", "setting": "Optimal pH of the enzyme", "value": "7.8-8.2"}, {"measurement": "Stable pH", "setting": "Stable pH of the enzyme", "value": "6.0-9.0"}, {"measurement": "specific activity", "setting": "[2]; listed as enzyme", "value": 1.22, "unit": "unit/mg protein"}, {"measurement": "specific activity", "setting": "[2]; listed as purified enzyme", "value": 1.22, "unit": "U/mg protein"}, {"measurement": "Spec. Act.", "setting": "[2]; Table 1, per purification step, pH 7.8, 30 minutes", "value": 1.22, "unit": "Unit/mg"}]}
